{"source": "patent US20110190313A1", "about": "“Treatment of Pulmonary Arterial Hypertension” (priority 2008, published 2011)", "key": {"[1]": {"system": "patients with severe pulmonary arterial hypertension", "assay": "Example 2 trial: pulmonary hemodynamics", "type": "in vivo, human", "method": "(§1) Patients (≧18 years) in FC II-IV with idiopathic or familial PAH, or PAH associated with systemic sclerosis or congenital heart disease (WHO group I) and PVR>300 dynes·sec·cm^−5 were eligible. Patients were on stable PAH medication(s) for >3 months before enrolment. Females of child-bearing potential used double-barrier contraception.\n(§2) The primary efficacy outcome was the between-group difference in the 6MW distance (6MWD) at baseline and at 6 months. Complete hemodynamic parameters were assessed with standard techniques. FC was classified according to the WHO modification of the NYHA criteria for pulmonary hypertension.\n(§3) Analyses were conducted within the intention-to-treat (ITT) population, which consisted of all patients who received at least one dose of study medication. Dropouts were excluded from the analysis The primary efficacy analysis (6MWD) was performed using analysis of covariance (ANCOVA) with baseline value as a covariate. ANCOVAs were also used to assess between-group differences in pulmonary hemodynamics and blood gases. Missing data were not imputed so only subjects with assessment both at baseline and post-treatment were included in the ANCOVA analysis. FC was compared using Fisher's test."}, "[2]": {"system": "patients with severe pulmonary arterial hypertension", "assay": "Example 2 trial: blood gases (oxygen saturation)", "type": "in vivo, human", "method": "as §3"}, "[3]": {"system": "patients with severe pulmonary arterial hypertension"}, "[4]": {"system": "patients with severe pulmonary arterial hypertension", "assay": "Example 2 trial: 6-minute walk test (6MWD)", "type": "in vivo, human", "details": "for 6MWD change vs. baseline, mean (SD): study end, patients with both baseline and end of study assessment", "excerpt": "Secondary objectives included changes in hemodynamic variables, and in FC.\nas §1, §2, §3"}, "[5]": {"details": "end of study, with imatinib treatment"}}, "note": "Where two headings read alike, the source gives them in different places.", "data": [{"smiles": "Cc1ccc(NC(=O)c2ccc(CN3CCN(C)CC3)cc2)cc1Nc1nccc(-c2cccnc2)n1", "note": "[imatinib]", "values": [{"measurement": "PAPm, imatinib vs. placebo", "setting": "[1]; 6 months, result in words", "value": "no significant difference"}, {"measurement": "Cardiac output (CO) mean treatment difference vs. placebo", "setting": "[1]; 6 months, 95% CI 0.10, 1.26, p=0.02", "value": 0.68, "unit": "L/min"}, {"measurement": "PVR mean treatment difference vs. placebo", "setting": "[1]; 6 months, 95% CI −383.7, −77.8, p=0.004", "value": "−230.7", "unit": "dynes"}, {"measurement": "Change between baseline and study end for PAPm, CO, PVR or 6MWD", "setting": "[1]; post-hoc subgroup, baseline PVR<1,000 dynes·sec·cm^−5", "value": "no major differences"}, {"measurement": "Change between baseline and study end for PAPm, CO, PVR and 6MWD compared with placebo", "setting": "[1]; post-hoc subgroup, baseline PVR≧1,000 dynes·sec·cm^−5", "value": "substantial improvement"}, {"measurement": "Systemic arterial oxygen saturation, mean treatment difference vs. placebo", "setting": "[2]; 95% CI 0.5, 4.3", "value": 2.4, "unit": "%"}, {"measurement": "Mixed venous oxygen saturation, mean treatment difference vs. placebo", "setting": "[2]; 95% CI 2.1, 11.9", "value": 7.0, "unit": "%"}, {"measurement": "Mixed venous oxygen saturation", "setting": "[2]; baseline", "value": "58±10", "unit": "%"}, {"measurement": "Systemic arterial oxygen saturation", "setting": "[2]; baseline", "value": "88±9", "unit": "%"}, {"measurement": "Mixed venous oxygen saturation", "setting": "[2]; [5]", "value": "65±7", "unit": "%"}, {"measurement": "Systemic arterial oxygen saturation", "setting": "[2]; [5]", "value": "93±5", "unit": "%"}, {"measurement": "Haemoglobin level (±SD)", "setting": "[3]; after the fall with imatinib", "value": "128 ± 16", "unit": "g/L"}, {"measurement": "Haemoglobin level (±SD)", "setting": "[3]; before the fall (start value)", "value": "151 ± 14", "unit": "g/L"}, {"measurement": "Deaths in group", "setting": "[3]; during 6 month study", "value": "three"}, {"measurement": "AE headache, number of patients", "setting": "[3]; imatinib group", "value": 10}, {"measurement": "AE headache, percent of patients", "setting": "[3]; imatinib group", "value": 35.7, "unit": "%"}, {"measurement": "AE nausea, percent of patients", "setting": "[3]; imatinib group", "value": 50, "unit": "%"}, {"measurement": "AE peripheral edema, number of patients", "setting": "[3]; imatinib group", "value": 7}, {"measurement": "AE peripheral edema, percent of patients", "setting": "[3]; imatinib group", "value": 25.0, "unit": "%"}, {"measurement": "Patients reporting AEs of mild intensity, number", "setting": "[3]; imatinib group", "value": 21}, {"measurement": "Patients reporting AEs of mild intensity, percent", "setting": "[3]; imatinib group", "value": 75, "unit": "%"}, {"measurement": "Patients reporting AEs of moderate intensity, number", "setting": "[3]; imatinib group", "value": 20}, {"measurement": "Patients reporting AEs of moderate intensity, percent", "setting": "[3]; imatinib group", "value": 71, "unit": "%"}, {"measurement": "Patients reporting AEs of severe intensity, number", "setting": "[3]; imatinib group", "value": 9}, {"measurement": "Patients reporting AEs of severe intensity, percent", "setting": "[3]; imatinib group", "value": 32, "unit": "%"}, {"measurement": "Patients with rupture of the pulmonary artery (fatal)", "setting": "[3]; imatinib group", "value": "One"}, {"measurement": "Serious AEs (SAEs), number of recipients", "setting": "[3]; imatinib group", "value": 11}, {"measurement": "Serious AEs (SAEs), percent of recipients", "setting": "[3]; imatinib group", "value": 39, "unit": "%"}, {"measurement": "AE nausea, number of patients", "setting": "[3]; imatinib group N = 28", "value": 14}, {"measurement": "Safety and tolerability in patients with PAH", "setting": "[3]; over 6 months, result in words", "value": "safe and well tolerated"}, {"measurement": "Changes over time in other laboratory variables (white blood cell count, platelet count, albumin, liver enzymes, creatinine, electrolytes etc.)", "setting": "[3]; result in words", "value": "no relevant changes"}, {"measurement": "6MWD treatment difference imatinib vs. placebo", "setting": "[4]; ANCOVA of ITT population, p=0.21", "value": 21.7, "unit": "m"}, {"measurement": "6MWD change vs. baseline, mean (SD)", "setting": "[4]", "value": "+22±63 m"}, {"measurement": "6MWD change vs. baseline, mean (SD)", "setting": "[4]; listed as Imatinib", "value": "22 (63) m"}]}]}
